Test results reported in patent EP2818472A1, “Imidazo[4,5-c]pyridine and pyrrolo[3,2-c]pyridine compounds as G-protein-coupled receptor kinase 5 (GRK5) modulators” (Max-Planck-Gesellschaft zur Förderung der Wissenschaften …, priority 2013, dated 2014).

Each molecule was assayed on beta-TC6 cells (assay: Insulin HTRF assay (relative activity Ar) in beta-TC6 cells). Settings: Mus musculus, Beta-TC6, 4 h, insulin HTRF, supernatant of beta-TC6 cells, incubation with test compound at 37°C for 2, 3, 4h; read-out: Ar (relative activity).
Format: cell-based, mouse
Summary of the method: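 beta-TC6 cells (15k/well, seeded 24 or 48 h) washed, then exposed to compound in induction buffer (0.5% DMSO final) for 2, 3 or 4 h at 37°C.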
In the case of `CNc1nc2cnc(-c3ccccc3)cc2n1Cc1ccc(OC)c(OC)c1` [Compound 669, 1-[(3,4-dimethoxyphenyl)methyl]-N-methyl-6-phenyl-imidazo[4,5-c]pyridin-2-amine], the Emax is reported as 30 to 50%.
`CNc1nc2cnc(-c3cccc4ccccc34)cc2n1Cc1ccc(OC)c(OC)c1` [Compound 670, 1-[(3,4-dimethoxyphenyl)methyl]-N-methyl-6-(1-naphthyl)imidazo[4,5-c]pyridin-2-amine] showed an Emax of 30 to 50%.
In the case of `CNc1nc2cnc(Nc3cccc(C)c3)cc2n1Cc1ccc(OC)c(OC)c1` [Compound 671, 1-[(3,4-dimethoxyphenyl)methyl]-N2-methyl-N6-(m-tolyl)imidazo[4,5-c]pyridine-2,6-diamine], the Emax is reported as 30 to 50%.
`CNc1nc2cnc(-c3ccc(OC)cc3)cc2n1Cc1ccc(OC)c(OC)c1` [Compound 672, 1-[(3,4-dimethoxyphenyl)methyl]-6-(4-methoxyphenyl)-N-methyl-imidazo[4,5-c]pyridin-2-amine] gave an Emax of 30 to 50%.
In the case of `CNc1nc2cnc(Nc3cccc(C(C)=O)c3)cc2n1Cc1ccc(OC)c(OC)c1` [Compound 673, 1-[3-[[1-[(3,4-dimethoxyphenyl)methyl]-2-(methylamino)imidazo[4,5-c]pyridin-6-yl]amino]phenyl]ethanone], the Emax is reported as 50 to 100%.
`CNc1nc2cnc(Nc3cccc(F)c3)cc2n1Cc1ccc(OC)c(OC)c1` [Compound 674, 1-[(3,4-dimethoxyphenyl)methyl]-N6-(3-fluorophenyl)-N2-methyl-imidazo[4,5-c]pyridine-2,6-diamine] gave an Emax of 30 to 50%.
`CNc1nc2cnc(Nc3ccc(SC)cc3)cc2n1Cc1ccc(OC)c(OC)c1` [Compound 675, 1-[(3,4-dimethoxyphenyl)methyl]-N2-methyl-N6-(4-methylsulfanylphenyl)imidazo[4,5-c]pyridine-2,6-diamine] gave an Emax of 50 to 100%.
`CNc1nc2cnc(Nc3cccc(OC(C)C)c3)cc2n1Cc1ccc(OC)c(OC)c1` [Compound 676, 1-[(3,4-dimethoxyphenyl)methyl]-N6-(3-isopropoxyphenyl)-N2-methyl-imidazo[4,5-c]pyridine-2,6-diamine] was tested, and the Emax was 30 to 50%.
With `COCCNc1nc2cnc(-c3ccc4ccccc4c3)cc2[nH]1` [Compound 677, N-(2-methoxyethyl)-6-(2-naphthyl)-1H-imidazo[4,5-c]pyridin-2-amine] the Emax was 50 to 100%.
For `CNc1nc2cnc(-c3ccc(N(C)C)cc3)cc2n1-c1cccc(F)c1` [Compound 678, 6-(4-dimethylaminophenyl)-1-(3-fluorophenyl)-N-methyl-imidazo[4,5-c]pyridin-2-amine], the Emax was greater than 100%.
In the case of `CNc1nc2cnc(Nc3cc(OC)c(OC)c(OC)c3)cc2n1-c1cccc(F)c1` [Compound 679, 1-(3-fluorophenyl)-N2-methyl-N6-(3,4,5-trimethoxyphenyl)imidazo[4,5-c]pyridine-2,6-diamine], the Emax is reported as 50 to 100%.
`CNc1nc2cnc(Nc3cccc(OC)c3)cc2n1-c1cccc(F)c1` [Compound 680, 1-(3-fluorophenyl)-N6-(3-methoxyphenyl)-N2-methyl-imidazo[4,5-c]pyridine-2,6-diamine] was tested, and the Emax was 50 to 100%.
`CNc1nc2cnc(Nc3ccc(C(N)=O)cc3)cc2n1-c1cccc(F)c1` [Compound 681, 4-[[1-(3-fluorophenyl)-2-(methylamino)imidazo[4,5-c]pyridin-6-yl]amino]benzamide] was tested, and the Emax was 50 to 100%.
`CNc1nc2cnc(Nc3cccc(N(C)C)c3)cc2n1-c1cccc(F)c1` [Compound 682, N6-[3-(dimethylamino)phenyl]-1-(3-fluorophenyl)-N2-methyl-imidazo[4,5-c]pyridine-2,6-diamine] gave an Emax of 50 to 100%.
Work on `CNc1nc2cnc(-c3cccc(N(C)C)c3)cc2n1-c1cccc(F)c1` [Compound 683, 6-[3-(dimethylamino)phenyl]-1-(3-fluorophenyl)-N-methyl-imidazo[4,5-c]pyridin-2-amine] yielded an Emax of 30 to 50%.
`CNc1nc2cnc(-c3ccc(S(C)(=O)=O)cc3)cc2n1-c1cccc(F)c1` [Compound 684, 1-(3-fluorophenyl)-N-methyl-6-(4-methylsulfonylphenyl)imidazo[4,5-c]pyridin-2-amine] was tested, and the Emax was 30 to 50%.
With `CNc1nc2cnc(Nc3ccc(OC)cc3)cc2n1-c1cccc(F)c1` [Compound 685, 1-(3-fluorophenyl)-N6-(4-methoxyphenyl)-N2-methyl-imidazo[4,5-c]pyridine-2,6-diamine] the Emax was 50 to 100%.
Work on `CNc1nc2cnc(Nc3ccc(C#N)cc3)cc2n1-c1cccc(F)c1` [Compound 686, 4-[[1-(3-fluorophenyl)-2-(methylamino)imidazo[4,5-c]pyridin-6-yl]amino]benzonitrile] yielded an Emax of 30 to 50%.
Work on `CNc1nc2cnc(-c3cccs3)cc2n1-c1cccc(F)c1` [Compound 687, 1-(3-fluorophenyl)-N-methyl-6-(2-thienyl)imidazo[4,5-c]pyridin-2-amine] yielded an Emax of 50 to 100%.
`CNc1nc2cnc(Nc3cccc(NC(C)=O)c3)cc2n1-c1cccc(F)c1` [Compound 688, N-[3-[[1-(3-fluorophenyl)-2-(methylamino)imidazo[4,5-c]pyridin-6-yl]amino]phenyl]acetamide] was tested, and the Emax was 50 to 100%.
`CNc1nc2cnc(Nc3cccc(C(C)=O)c3)cc2n1-c1cccc(F)c1` [Compound 689, 1-[3-[[1-(3-fluorophenyl)-2-(methylamino)imidazo[4,5-c]pyridin-6-yl]amino]phenyl]ethanone] gave an Emax of 50 to 100%.
For `COc1cc(-n2cnc3cnc(Nc4cccc(C(F)(F)F)c4)cc32)cc(OC)c1OC` [Compound 690, N-[3-(trifluoromethyl)phenyl]-1-(3,4,5-trimethoxyphenyl)imidazo[4,5-c]pyridin-6-amine], the Emax was greater than 100%.
Molecule `CN(C)c1cccc(Nc2cc3c(cn2)ncn3-c2ccccc2)c1` [Compound 691, N1,N1-dimethyl-N3-(1-phenylimidazo[4,5-c]pyridin-6-yl)benzene-1,3-diamine] has an Emax of 30 to 50%.
Work on `CC(=O)Nc1ccc(Nc2cc3c(cn2)ncn3Cc2ccco2)cc1` [Compound 692, N-[4-[[1-(2-furylmethyl)imidazo[4,5-c]pyridin-6-yl]amino]phenyl]acetamide] yielded an Emax of 30 to 50%.
In the case of `COc1ccc(Nc2cc3c(cn2)ncn3Cc2ccco2)cc1` [Compound 693, 1-(2-furylmethyl)-N-(4-methoxyphenyl)imidazo[4,5-c]pyridin-6-amine], the Emax is reported as 50 to 100%.
For `CC(=O)Nc1ccc(Nc2cc3c(cn2)ncn3Cc2ccccc2)cc1` [Compound 694, N-[4-[(1-benzylimidazo[4,5-c]pyridin-6-yl)amino]phenyl]acetamide], the Emax was 50 to 100%.
`c1ccc(Cn2cnc3cnc(Nc4ccc5c(c4)OCO5)cc32)cc1` [Compound 695, N-(1,3-benzodioxol-5-yl)-1-benzyl-imidazo[4,5-c]pyridin-6-amine] gave an Emax of 50 to 100%.
In the case of `CS(=O)(=O)c1ccc(Nc2cc3c(cn2)ncn3CC2CC2)cc1` [Compound 696, 1-(cyclopropylmethyl)-N-(4-methylsulfonylphenyl)imidazo[4,5-c]pyridin-6-amine], the Emax is reported as 30 to 50%.
In the case of `COc1cc(Nc2cc3c(cn2)nc(C)n3C)cc(OC)c1OC` [Compound 697, 1,2-dimethyl-N-(3,4,5-trimethoxyphenyl)imidazo[4,5-c]pyridin-6-amine], the Emax is reported as 50 to 100%.
For `CC(=O)c1cccc(Nc2cc3c(cn2)nc(C)n3C)c1` [Compound 698, 1-[3-[(1,2-dimethylimidazo[4,5-c]pyridin-6-yl)amino]phenyl]ethanone], the Emax was 30 to 50%.
In the case of `COc1cc(Nc2cc3c(cn2)nc(Cc2ccccc2)n3C)cc(OC)c1OC` [Compound 699, 2-benzyl-1-methyl-N-(3,4,5-trimethoxyphenyl)imidazo[4,5-c]pyridin-6-amine], the Emax is reported as 50 to 100%.
